Data as given in patent US20220056040A1, “NOVEL 3-(2-BROMO-4-ALKYNYL-6-ALKOXYPHENYL)-3-PYRROLIN-2-ONES AND THEIR USE AS HERBICIDES” (Bayer Aktiengesellschaft, priority 2019, published 2022).

How the values were obtained:
Assay type in all cases: in vivo
Alopecurus myosuroides [1] = assay: Pre-emergence herbicidal effect; conditions: 80 g/ha, visual score after 3 weeks vs untreated controls
Text: (§1) Seeds of monocotyledonous and dicotyledonous weed plants and crop plants are laid out in sandy loam soil in wood-fiber pots and covered with soil. The compounds of the invention, formulated in the form of wettable powders (WP) or as emulsion concentrates (EC), are then applied to the surface of the covering soil as aqueous suspension or emulsion at a water application rate equating to 600 to 800 L/ha with addition of 0.2% wetting agent. After the treatment, the pots are placed in a greenhouse and kept under good growth conditions for the trial plants. The damage to the test plants is scored visually after a test period of 3 weeks by comparison with untreated controls (herbicidal activity in percent (%): 100% activity=the plants have died, 0% activity=like control plants).

Avena fatua = assay: Pre-emergence herbicidal effect; conditions: 80 g/ha, visual score after 3 weeks vs untreated controls
Text: as §1

Digitaria sanguinalis [2] = assay: Pre-emergence herbicidal effect; conditions: 80 g/ha, visual score after 3 weeks vs untreated controls
Text: as §1

Echinochloa crus-galli [3] = assay: Pre-emergence herbicidal effect; conditions: 80 g/ha, visual score after 3 weeks vs untreated controls
Text: as §1

Lolium rigidum [4] = assay: Pre-emergence herbicidal effect; conditions: 80 g/ha, visual score after 3 weeks vs untreated controls
Text: as §1

Setaria viridis [5] = assay: Pre-emergence herbicidal effect; conditions: 80 g/ha, visual score after 3 weeks vs untreated controls
Text: as §1

Alopecurus myosuroides [6] = assay: Post-emergence herbicidal effect; conditions: 80 g/ha, post-emergence at one-leaf stage, visual score after about 3 weeks
Protocol: (§2) Seeds of monocotyledonous and dicotyledonous weed and crop plants are laid out in sandyloam soil in wood-fiber pots, covered with soil and cultivated in a greenhouse under good growth conditions. 2 to 3 weeks after sowing, the test plants are treated at the one-leaf stage. The compounds of the invention, formulated in the form of wettable powders (WP) or as emulsion concentrates (EC), are then sprayed onto the green parts of the plants as aqueous suspension or emulsion at a water application rate equating to 600 to 800 l/ha with addition of 0.2% wetting agent. After the test plants have been left to stand in the greenhouse under optimal growth conditions for about 3 weeks, the action of the preparations is assessed visually in comparison to untreated controls (herbicidal action in percent (%): 100% activity=the plants have died, 0% activity=like control plants).

Digitaria sanguinalis [7] = assay: Post-emergence herbicidal effect; conditions: 80 g/ha, post-emergence at one-leaf stage, visual score after about 3 weeks
Protocol: as §2

Echinochloa crus-galli [8] = assay: Post-emergence herbicidal effect; conditions: 80 g/ha, post-emergence at one-leaf stage, visual score after about 3 weeks
Protocol: as §2

Hordeum murinum = assay: Post-emergence herbicidal effect; conditions: 80 g/ha, post-emergence at one-leaf stage, visual score after about 3 weeks
Protocol: as §2

Lolium rigidum [9] = assay: Post-emergence herbicidal effect; conditions: 80 g/ha, post-emergence at one-leaf stage, visual score after about 3 weeks
Protocol: as §2

Setaria viridis [10] = assay: Post-emergence herbicidal effect; conditions: 80 g/ha, post-emergence at one-leaf stage, visual score after about 3 weeks
Protocol: as §2

SMILES	Pre-emergence action ALOMY (herbicidal activity in percent) (Alopecurus myosuroides [1]) [%]	Pre-emergence action AVEFA (herbicidal activity in percent) (Avena fatua) [%]	Pre-emergence action DIGSA (herbicidal activity in percent) (Digitaria sanguinalis [2]) [%]	Pre-emergence action ECHCG (herbicidal activity in percent) (Echinochloa crus-galli [3]) [%]	Pre-emergence action LOLRI (herbicidal activity in percent) (Lolium rigidum [4]) [%]	Pre-emergence action SETVI (herbicidal activity in percent) (Setaria viridis [5]) [%]	Post-emergence action against ALOMY (herbicidal action in percent) (Alopecurus myosuroides [6]) [%]	Post-emergence action against DIGSA (herbicidal action in percent) (Digitaria sanguinalis [7]) [%]	Post-emergence action against ECHCG (herbicidal action in percent) (Echinochloa crus-galli [8]) [%]	Post-emergence action against HORMU (herbicidal action in percent) (Hordeum murinum) [%]	Post-emergence action against LOLRI (herbicidal action in percent) (Lolium rigidum [9]) [%]	Post-emergence action against SETVI (herbicidal action in percent) (Setaria viridis [10]) [%]
CC#Cc1cc(Br)c(C2=C(O)C3(CCC4(CC3)OCCO4)NC2=O)c(OC)c1 [Example 1.2.03]	100	100	100	100	100	100	90	100	100	100	100	100
C=CCOC1CCC2(CC1)NC(=O)C(c1c(Br)cc(C#CC)cc1OC)=C2O (stereo not drawn) [Example 1.3.01]	100	100	100	90	100	100	100	100	100	100	100	100
